Experimental data reported in patent EP0096931B1, “Radiographic imaging agents” (priority 1982, dated 1983).

Assay: Skeletal imaging with a scintillation camera after intravenous injection of the imaging agent
Type: in vivo, human
Conditions: acid or its monosodium salt replaces AMDP in the Example I kit; compared with the Example I result
Procedure: An imaging agent is prepared using this kit by adding about 5 ml of a pertechnetate-Tc99m physiological saline solution, with an activity of about 0.278 x 10^10 Bq (about 75 mCi), from a commercial technetium source. The vial is agitated until the kit components are dissolved. About 1 ml of the agent is slowly injected, over a period of about 30 seconds, into an adult human subject weighing about 75 kg.

Row | Structure (SMILES) | skeletal images, carrier used instead of AMDP in the kit of Example I
1 | NCC(O)(P(=O)(O)O)P(=O)(O)O [ethane-1-hydroxy-2-amino-1,1-diphosphonic acid] | substantially similar results
2 | CN(C)C(P(=O)(O)O)P(=O)(O)O [methane-N,N-dimethylaminodiphosphonic acid] | substantially similar results
3 | CNC(P(=O)(O)O)P(=O)(O)O [methane-N-methylaminodiphosphonic acid] | substantially similar results
4 | NC(O)(P(=O)(O)O)P(=O)(O)O [methaneaminohydroxydiphosphonic acid] | substantially similar results
5 | NCCC(O)(P(=O)(O)O)P(=O)(O)O [propane-1-hydroxy-3-amino-1,1-diphosphonic acid] | substantially similar results
